Test results taken from publication PMC12669040, “Tumour-specific STING agonist synthesis via a two-component prodrug system” (Nature Chemistry, 2025).
“And” between values parts separate entries of the source, which are not always exact repeats. Identical values can stand only once. Like-named read-outs stand apart in the source and are kept apart here.

Columns and labels:
[1] = tested on: non-tumour zebrafish larvae; assay: Maximum tolerated concentration (MTC) on non-tumour zebrafish larvae; assay type: in vivo, zebrafish (Danio rerio)
Protocol: Extended Data Fig. 7 Additional zebrafish experiment data. a MTC of β-GlcA-N1/E4 treatments on non-tumor zebrafish larvae. […] Toxicity was assessed daily by counting the total number of dead larvae and checking for the presence of morphologic changes such cardiac edemas or curved tails. Control groups were treated with the highest matched DMSO concentration (0.04%, v/v). b Left: representative image of phagocytosis in a xenograft treated with β-GlcA-N1/E4 and β-glucuronidase at 2dpi in Tg(mpeg1:mcherry-F). Each yellow arrow indicates a phagocytic event. Right: n° of phagocytic events at 2dpi. Data are presented as mean ± SEM. Statistical analysis follows that of Fig. 5. Source data

[2] = Haematotoxicity, CT26mβGUS model; assay type: in vivo, BALB/c mice; design: WBC / RBC: unit not given here
Text: MCV: Mean Corpuscular Volume; MCH: Mean Corpuscular Haemoglobin; WBC: White Blood Cell Count; PLT: Platelet Count; RDW-CV: Red Cell Distribution Width - Coefficient of Variation; MPV: Mean Platelet Volume. RBC: red blood cell count; HGB: haemoglobin; HCT: haematocrit; MCV: Mean Corpuscular Volume; MCH: Mean Corpuscular Haemoglobin; WBC: White Blood Cell Count; PLT: Platelet Count; RDW-CV: Red Cell Distribution Width - Coefficient of Variation; MPV: Mean Platelet Volume. […] Source data

MC38 tumours = settings: for Tumor Size: individual mice, * = excluded once a death was recorded in the group
[3] = biological target: T1, wild-type human STING LBD (hSTINGwt 138-379) (Homo sapiens, UniProt Q86WV6, H232R); assay: Isothermal titration calorimetry (ITC), reverse titration; assay type: binding
T1 construct: SUMO (N, cleaved yes); made in house; host or cells: Escherichia coli BL21 (DE3)
Protocol: Escherichia coli BL21 (DE3) (Thermo Scientific EC0114) was transformed with a pET28a plasmid (Genscript) harbouring the codon-optimized sequence of SUMO-hSTINGwt (aa138-379). Transformed BL21 cells were inoculated into LB medium (50 µg ml^−1 kanamycin) and incubated at 180 rpm, 37 °C overnight. The overnight culture was then diluted (1:100 dilution) in 2× YT medium (50 µg ml^−1 kanamycin) and incubated at 180 rpm, 37 °C until optical density at 600 nm (OD600) reached 0.6 (approximately 3 h). The bacterial culture was then cooled to 16 °C, induced with 0.5 mM isopropyl 1-thio-D-galactopyranoside and incubated overnight at 180 rpm, 16 °C. The bacterial cells were pelleted at 4,000g for 30 min, resuspended in 20 ml of lysis buffer (25 mM HEPES pH 7.5, 150 mM NaCl, 20 mM imidazole and 2 mM TCEP supplied with 2 tablets of cOmplete mini EDTA-free protease inhibitors) and disrupted by sonication on ice. The total lysate was clarified by centrifugation at 22,000g for 30 min. The supernatant was collected and filtered through a 0.45-µm filter (Millipore SLHAR33SS). The clarified lysate was then incubated on a roller with 10 ml bed volume of Ni-NTA resin (Thermo Scientific 88223) at 4 °C for 1 h. The Ni-NTA resin was then packed in a column, flushed with 20 ml of wash buffer (25 mM HEPES pH 7.5, 150 mM NaCl and 20 mM imidazole) and eluted with 40 ml of elution buffer (25 mM HEPES pH 8.0, 150 mM NaCl and 250 mM imidazole). The eluted protein was concentrated to approximately 5 ml (Millipore Amicon 10 kDa molecular weight cut-off (MWCO)) and buffer-exchanged into storage buffer (25 mM HEPES pH 7.5 and 150 mM NaCl). TCEP was then added to a final concentration of 2 mM, and 250 units of SUMO protease (Merck SAE0067) were added. The cleavage reaction mixture was left to stand at 4 °C overnight until LC–MS analysis indicated the completion of the cleavage reaction. The cleavage mixture was incubated with 10 ml bed volume of Ni-NTA resin on a roller at 4 °C for 1 h and packed in a disposable column. The flowthrough was collected, and the resin was further flushed with 20 ml of wash buffer. The eluted fractions were combined, concentrated and further purified by size-exclusion chromatography (Cytiva, Superdex 200 Increase 10/300 GL). The purified protein in storage buffer was concentrated to 330 µM (dimer concentration) as determined by bicinchoninic acid (BCA) assay, aliquoted, flash-frozen in liquid nitrogen and stored at −80 °C for future use.
The binding constants of purified dimers were measured by ITC (Malvern Panalytical AutoITC200) in a reverse-titration format. Stock DMSO solutions of each dimer were dissolved in titration buffer (25 mM HEPES pH 7.5 and 150 mM NaCl) to a final concentration of 25 µM and added to the titration cell. The syringe was filled with 250 µM of purified STING in a matching buffer. Titration was performed at 25 °C with the following parameters: 750 rpm stirring, 0.2 µl initial injection followed by 2-µl injections of the […] every 120 s. Titration of STING protein into blank buffer was separately performed and subtracted from the raw data before the analysis. The background-subtracted titration curves were fitted with the built-in Origin software using the standard one-site model.
Extended Data Fig. 2 Isothermal titration calorimetry (ITC) data for binding constant measurements. Purified hSTINGwt138-379 (250 μM of homodimer) was titrated into each dimer (25 μM) dissolved in a matching buffer (25 mM HEPES pH 7.5, 150 mM NaCl) at 25 °C and 750 rpm stirring. Binding constants were reported as the average from duplicate measurements.

[4] = Day0, individual mice, in % (unit assumed)
[5] = Day0, individual mice, in pg (unit assumed)
[6] = Day5, individual mice, in % (unit assumed)
[7] = Day5, individual mice, in fL (unit assumed)
[8] = Day5, individual mice, in g/dL (unit assumed)

T1 sequence (Q86WV6 138-379 H232R): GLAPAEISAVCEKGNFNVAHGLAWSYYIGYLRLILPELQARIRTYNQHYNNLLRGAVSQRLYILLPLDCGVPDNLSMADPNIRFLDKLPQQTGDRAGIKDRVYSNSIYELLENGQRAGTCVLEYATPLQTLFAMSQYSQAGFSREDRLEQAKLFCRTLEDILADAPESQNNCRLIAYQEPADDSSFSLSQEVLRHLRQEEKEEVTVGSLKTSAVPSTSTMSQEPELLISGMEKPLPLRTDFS

Structure (SMILES)	MPV ([2]; Day0, individual mice)	PLT ([2]; Day0, individual mice)	RBC ([2]; Day0, individual mice)	WBC ([2]; Day0, individual mice)	HCT [2, 4]	MCH [2, 5]	MCH ([2]; Day5, individual mice)	MPV ([2]; Day5, individual mice)	PLT ([2]; Day5, individual mice)	RBC ([2]; Day5, individual mice)	WBC ([2]; Day5, individual mice)	HCT [2, 6]	MCV [2, 7]	HGB [2, 8]	also measured
COc1cc2cc(C(=O)CCC(=O)O)sc2cc1OC [MSA2]	6.5 and 7.1 and 7.9	1210 and 892 and 696 and 576	10.94 and 10.54 and 10.66 and 9.7	7.1 and 7.7 and 8.8 and 8.2	53.4 and 52.7 and 52.8 and 48.8	15.1 and 14.8 and 14.6 and 14.9	14.9 pg (3×) and 15 pg	6.6 and 7.6 (2×) and 6.8	1244 and 920 and 808 and 855	10 and 8.31 and 9.87 and 7.92	8.6 and 8 and 9.3 and 7.4	51.7 and 43.1 and 50.2 and 40.6	51.7 and 51.9 and 50.9 and 51.3	14.9 and 12.4 and 14.8 and 11.8	MSA2 MTC, event per larva (0/1) ([1]; 15 μM, day 3): 0; MSA2 MTC, survival event code per larva ([1]; 15 μM, Days 3, one cell per larva (0/1 code)): 0; MSA2 MTC, event per larva (0/1) ([1]; 75 μM, day 1): 0; MSA2 MTC, event per larva (0/1) ([1]; 75 μM, day 3): 1; MSA2 MTC, survival event code per larva ([1]; 75 μM, Days 3, one cell per larva (0/1 code)): 0; MSA2 MTC, survival event code per larva ([1]; 150 μM, Days 3, one cell per larva (0/1 code)): 0; HGB ([2]; Day0, individual mice): 16.5 and 15.6 (2×) and 14.5; RDW-CV ([2]; Day0, individual mice): 14.4 and 15.1 (2×) and 15.3; MCV ([2]; Day0, individual mice, in fL (unit assumed)): 48.8 and 50 and 49.5 and 50.3; RDW-CV ([2]; Day5, individual mice): 16 and 14.5 and 14.4 (2×); red blood cells, haemoglobin and haematocrit ([2]; MSA2 5 mg kg^−1 IT): modest decreases; Tumor Size (MC38 tumours; day 39): 279.4986* mm^3; Tumor Size (MC38 tumours; day 53): 0* mm^3; Survival: Days (MC38 tumours; mouse, in vivo): 60 days and 49 days and 35 days
COc1cc2sc(C(=O)CCC(=O)O)cc2cc1SCCSc1cc2cc(C(=O)CCC(=O)O)sc2cc1OC [SC2S]	8 and 7.6 and 6.7 and 7.2	670 and 896 and 1143 and 870	9.65 and 10.31 and 10.59 and 10.89	11 and 10 and 8.7 and 8.4	53.1 and 53.2 and 53 and 54.5	15.1 and 14.8 and 14.9 and 15	15.1 and 14.7 and 15.2 (2×)	7.6 (2×) and 6.6	155 and 541 and 770 and 1292	8.22 and 9.33 and 9.82 and 10.19	9.2 and 10.4 and 6.6 (2×)	42 and 49.9 and 50.4 and 52	51.1 and 50.3 and 51.3 and 51	12.4 and 13.7 and 14.9 and 15.5	Kd ([3]; 25 °C, average of duplicate measurements, read-out: Kd hSTINGwt (binding constant, ITC)): 176 nM; Kd ([3]; ITC run _01, read-out: Kd): 191 nM; Kd ([3]; ITC run _02, read-out: Kd): 160 nM; SC2S MTC, event per larva (0/1) ([1]; 0.62 μM, day 3): 1; SC2S MTC, event per larva (0/1) ([1]; 3.1 μM, day 1): 0; SC2S MTC, event per larva (0/1) ([1]; 3.1 μM, day 3): 0; SC2S MTC, survival event code per larva ([1]; 6.2 μM, Days 3, one cell per larva (0/1 code)): 1; MCV ([2]; Day0, individual mice): 55 and 51.6 and 50 (2×); RDW-CV [2, 4]: 14.7 and 15.1 and 14.8 and 15; HGB ([2]; Day0, individual mice, in g/dL (unit assumed)): 14.6 and 15.3 and 15.8 and 16.3; RDW-CV [2, 6]: 14 and 14.3 and 16.7 and 15.7
